In ChEMBL document CHEMBL3507680, “University of Dundee, Gates Library screen for HepG2 cell viability”:

Test: Human HepG2 cell viability assay in 384 well format
Type: toxicity, cell-based
Parameters: dose 125 nL, time 70.5 hour; concentration not given beside the values
Conditions: HepG2 cells, read-out: Inhibition

Row | Structure (SMILES) | cytotoxicity at 70.5 h [%]
1 | CC(Cn1cccn1)NC(=O)N1CCN(Cc2ccco2)CC1 (stereo not given) | 0.805
2 | Cc1ccoc1C(=O)N1CCCC(CNS(C)(=O)=O)C1 (stereo not given) | 18
3 | Cc1ccc(-c2ncc(C(=O)NCCNC(=O)C3CC3)s2)c(C)c1 | -6.37
4 | Cc1nc(C(C)C)sc1C(=O)NCCNc1ncccc1C#N | -1.44
5 | CC(=O)N1CCCN(C(=O)NC(C)Cn2cccn2)CC1 (stereo not given) | -3.94
6 | CN1N=C(C(=O)N2CCCC(n3cccn3)C2)CCC1=O (stereo not given) | -3.66
7 | COc1cc(C)nc(N2CCN(C(=O)c3cc(C)no3)CC2)n1 | 26.3
8 | Cc1ccc(-c2ncc(C(=O)NS(C)(=O)=O)s2)c(C)c1 | -1.13
9 | CN(Cc1cn(-c2ccccc2)nn1)C1CCCN(c2cccnn2)C1 (stereo not given) | -3.67
10 | Cc1nc(C)n(C2CCCN(C(=O)c3csc(C)n3)C2)n1 (stereo not given) | -5.49
11 | O=C(c1cc2cc(I)ccc2[nH]1)N1CCC(Nc2cccnn2)CC1 | 1.42
12 | CN(CCNC(=O)NCc1ccsc1)C1CCCC1 | -8.28
13 | CC(C)CCc1nc(CNCC2CN(C)CCO2)cs1 (stereo not given) | -1.37
14 | Cc1nccn1C1CCCN(C(=O)c2cccc(OCC(N)=O)c2)C1 (stereo not given) | -10.4
15 | Cc1nc(CNCC2CN(C3CC3)CCO2)cs1 (stereo not given) | 23.8
16 | Cc1nc(C2CCCN2C(=O)CCCn2cncn2)no1 (stereo not given) | -7.37
17 | Cn1cnc2c1CCN(Cc1csc(C3CCCCC3)n1)C2 | -14.4
18 | Cc1noc(C(C)C)c1C(=O)NCCCN1CCC(C)CC1 | -13
19 | Cc1noc(C(C)C)c1C(=O)NCCN1CCOCC1 | -17.9
20 | Cc1noc(C(C)C)c1C(=O)NCCC(=O)N1CCCCC1 | -19
21 | COCCN1CCN(CC(C)(O)c2cccc(C(F)(F)F)c2)CC1 (stereo not given) | -12.6
22 | COCc1nc(C(=O)N2CCCC(n3ccnc3C)C2)cs1 (stereo not given) | -18.6

Row | Structure (SMILES) | cytotoxicity at 70.5 h [%]
23 | CCc1n[nH]c(C2CN(C(=O)c3ccnc(C)n3)CCO2)n1 (stereo not given) | 13.5
24 | CN(C)c1ncccc1CNS(=O)(=O)c1ccc(F)cc1F | -12.9
25 | CC(=O)N1CCCN(C(=O)NCCOc2ccc3c(c2)OCO3)CC1 | -8.5
26 | CC(C)CS(=O)(=O)CC(=O)NC(C)c1nnc2n1CCC2 (stereo not given) | -2.61
27 | O=C(NCCOc1ccc2c(c1)OCO2)N1CCCC(CO)C1 (stereo not given) | -10
28 | Cc1nn(C)c(N(C)C)c1CNC(C)COc1ccccc1F (stereo not given) | -11.1
29 | CC(NC(=O)CCC1CCCCC1)c1nnc2n1CCC2 (stereo not given) | -4.91
30 | c1ccc(-n2ccc(CN3CCCCC3Cn3cncn3)n2)cc1 (stereo not given) | -12.9
31 | Cc1nccn1C1CCCN(C(=O)c2cccc(Cn3ccnc3)c2)C1 (stereo not given) | -1.32
32 | COCc1nc(C(=O)N2CCCC(n3ccnc3C(C)C)C2)cs1 (stereo not given) | -12.2
33 | CCn1nc2c(cc1=O)CN(CC(=O)Nc1nnc(C)s1)CC2 | -15
34 | CN1CCOC(CNCc2csc(C3CCCC3)n2)C1 (stereo not given) | -1.7
35 | CCc1nc(C2CCCN2C(=O)CCCn2cncn2)no1 (stereo not given) | -8.49
36 | Cc1nnc(NC(=O)CN2CCc3nn(C(C)C)c(=O)cc3C2)s1 | -6.14
37 | CC1CCCN(C(=O)CNC(=O)c2ccoc2)C1 (stereo not given) | 49.9
38 | Cc1cc(CN2CCCC(Cn3cncn3)C2)no1 (stereo not given) | 16
39 | CN(C)c1ccc(C(=O)N2CCCN(Cc3cscn3)CC2)nn1 | 27.8
40 | COc1ccc(-c2nnc(CNCCn3cc(C)cn3)o2)cc1 | 14.6
41 | CN1CCC/C1=N\S(=O)(=O)c1ccc(NC(=O)c2ccsc2)cc1 | -11.8
42 | Cc1ccc(C(=O)Nc2ccc(S(=O)(=O)/N=C3\CCCN3C)cc2)s1 | -10
43 | Cc1nc(CN2CCN(C(=O)c3ccnc(N(C)C)c3)CC2)cs1 | -14.4
44 | CN(C(=O)c1ccc(-n2ncc(C#N)c2N)cc1)C1CCCC1 | -1.19

Row | Structure (SMILES) | cytotoxicity at 70.5 h [%]
45 | CCc1ccsc1C(=O)N1CCN(CC(N)=O)CC1 | 13.8
46 | CCN(Cc1cccc2c1OCO2)C(=O)Nc1ccccn1 | -9.07
47 | Cc1cc(NC(=O)CN2CCC(N3CCNC3=O)CC2)on1 | -5.65
48 | CCc1ccsc1C(=O)N1CCN(CCN2C(=O)CCC2=O)CC1 | -3.69
49 | Cc1cnn(CC2CCCN2CC(=O)Nc2nccs2)c1 (stereo not given) | 3.35
50 | Cc1ccc(OCC(O)CN2CCC(Cn3cc(C)cn3)CC2)cc1 (stereo not given) | -0.66
51 | CCC(O)CN1CCN(C(=O)c2sccc2C2CC2)CC1 (stereo not given) | -2.13
52 | c1ccc(-c2cc(CN3CCCC(Cn4cncn4)C3)on2)cc1 (stereo not given) | -1.24
53 | Cc1cnn(CCNCc2nnc(-c3ccc(F)cc3)o2)c1 | -10.4
54 | Cc1cnn(CC2CCCN2CC(=O)Nc2cc(C)on2)c1 (stereo not given) | 0.558
55 | CC(C)c1nc(CN(C)C2CCN(Cc3nnc(C4CC4)o3)C2)no1 (stereo not given) | 1.8
56 | CCc1nc(CN(C)C2CCN(Cc3nnc(C4CCC4)o3)C2)no1 (stereo not given) | -0.232
57 | Cc1nc(CN(C)C2CCN(Cc3nnc(C4CC4)o3)C2)no1 (stereo not given) | 2.48
58 | Cc1cc(C)n(CC2CN(Cc3nc(C4CC4)no3)CCO2)n1 (stereo not given) | -4.87
59 | Cc1cc(C)n(CC2CN(Cc3noc(C)n3)CCO2)n1 (stereo not given) | 10.1
60 | c1ccc(CCCN2CCCC2Cn2cncn2)cc1 (stereo not given) | -3.86
61 | O=C(NCCN1CCOCC1)NCC(O)c1cccc(F)c1 (stereo not given) | -3.47
62 | Cc1nc(C)n(CC2CCCN(c3ncnc4c3CCC4)C2)n1 (stereo not given) | 26.1
63 | Cc1nn(C)c(Cl)c1C1CCCN1C(=O)c1cc(Cl)c[nH]1 (stereo not given) | -17.6
64 | O=C(O)c1ccc(S(=O)(=O)Nc2ccc(Cl)c(F)c2)c(F)c1 | -5.1
65 | COCCOc1ncccc1CNCc1c(C)nn(C)c1N(C)C | 2.93
66 | c1cnc(-c2nc(CN3CCOC(Cn4cncn4)C3)cs2)nc1 (stereo not given) | 11.7

Row | Structure (SMILES) | cytotoxicity at 70.5 h [%]
67 | CC(C)(C)c1nc(CN2CCCC(Cn3cncn3)C2)cs1 (stereo not given) | 25.2
68 | CCOC(=O)NC(C(=O)NCc1ccc(N2CCCCC2)nc1)C(C)C (stereo not given) | -8.83
69 | COCc1cccc(CNCc2c(C)nn(C)c2N(C)C)c1 | 42.4
70 | CCN(CC)C(C(=O)NCc1ccc(N2CCCC2)nc1)C(C)C (stereo not given) | 2.85
71 | Cc1ccc(NC(=O)N(C)Cc2cnn(C)c2)cc1OCC(F)F | 26.4
72 | Cc1csc(C2CCCN(C(=O)c3cnc4n[nH]c(C)c4c3)C2)n1 (stereo not given) | -10.8
73 | Cn1cc(C2CCCN2CCCc2nc(-c3cccs3)no2)cn1 (stereo not given) | -11.4
74 | Cc1cc(C)n(CC2CCCN2CC(=O)N(C)C)n1 (stereo not given) | -11.4
75 | c1cc(CN2CCCC(c3noc(C4CC4)n3)C2)no1 (stereo not given) | 3.46
76 | O=C(CCN1CCCC1c1cccs1)N1CCc2sccc2C1 (stereo not given) | -13.7
77 | O=C(COc1cccc(Br)c1)N1CCOCC1c1ncon1 (stereo not given) | -3.27
78 | Cc1cnn(CCC(=O)N2CCCC(c3nc(C)no3)C2)c1 (stereo not given) | 37.7
79 | CC(C)c1nc2n(n1)CC(NCc1nnnn1C1CC1)CC2 (stereo not given) | -5.21
80 | N#Cc1ccccc1CN1CCCCC1Cn1cncn1 (stereo not given) | -20
81 | Cc1nn(C)c(C)c1C1CCCN1CCCc1nc2ccccc2o1 (stereo not given) | -8.55
82 | COc1ccc(CCC(=O)Nc2cccnc2N2CCCC2)cc1Br | -5.48
83 | Cc1cc(C(=O)NCc2cccnc2OC(C)C)no1 | -31.2
84 | CC(NC(=O)CCOc1ccccc1Cl)c1nnc2n1CCC2 (stereo not given) | -16.2
85 | COc1cccc(COCC(=O)N2CCCC(c3nncn3C)C2)c1 (stereo not given) | -12.7
